How the values were obtained:
[1] = target: T1, CA II (Homo sapiens, UniProt P00918); experiment: stopped-flow CO2 hydration; assay type: biochemical; conditions: 8.5 mM CO2, 20 mM HEPES-Na pH 7.5, 20 mM Na2SO4, 25 °C, 2.5 nM enzyme; Cheng-Prusoff; read-out: In vitro inhibition / Ki (CA II)
T1 construct: gene CA2; recombinant, expressed in E. coli and purified
Description: stopped-flow CO2 hydration on CA II

[2] = target: T2, CA IX (Homo sapiens, UniProt Q16790, C174S); experiment: stopped-flow CO2 hydration; assay type: biochemical; conditions: 8.5 mM CO2, 20 mM HEPES-Na pH 7.5, 20 mM Na2SO4, 25 °C, 0.0025% DDM, 0.5 nM enzyme; Cheng-Prusoff; read-out: In vitro inhibition / Ki (CA IX)
T2 construct: gene CA9; extracellular part, PG and CA domains, residues 38-391, C174S; expressed in HEK 293 cells and purified
Description: stopped-flow CO2 hydration on CA IX

Row | Ki [1] [nM] | Ki [2] [nM] | Substance
1 | 1300 ± 122 | 14.8 ± 1.98 | 1-H2NSO2(CH2)5-1,2-closo-C2B10H11 [5a]
2 | 821 ± 70.7 | 44.6 ± 4.86 | 1-H2NSO2(CH2)6–1,2-closo-C2B10H11 [6a]
3 | 299 ± 26 | 10.6 ± 1.37 | [7-H2NSO2-(CH2)5–7,8-nido-C2B9H11]K [5b^−]
4 | 29.5 ± 3.32 | 29.3 ± 7.39 | [7-H2NSO2-(CH2)6–7,8-nido-C2B9H11]K [6b^−]

Reference: article PMC7534198, “The structural basis for the selectivity of sulfonamido dicarbaboranes toward cancer-associated carbonic anhydrase IX” (Journal of Enzyme Inhibition and Medicinal Chemistry, 2020)
